Where two headings read alike, the source gives them in different places.
Columns and labels:
[1] = test system: P. falciparum Dd2 Cytb V259L; assay: SYBR Green ABS proliferation assay, NCGC00473217 selected clone F06; type: cell-based, Plasmodium falciparum; details: Plasmodium falciparum, DD2, […]; averaged from three independent replicates; top concentration 29 µM; read-out: Average AC50 (Log[M]), NCGC00473217 clone F06 (Cytb V259L) (converted)
Experimental: (§1) As resistance selection studies implicated the parasite cytochrome bc1 complex in mediating reduced parasite susceptibility to both NCGC00473217 and NCGC00374598, we leveraged these drug-selected parasites to test for altered drug response to a panel of antimalarial compounds.
(§2) The P. falciparum parasite Dd2 line was cultured in vitro using standard conditions. […] Tissue culture flasks and assay plates were incubated at 37 °C under a gas mixture of 5% CO2, 5% O2 and 90% N2. […] Significant differences were assessed using two-sided Student’s t-tests. All HTS assays were stopped and read at 72 h. Percent response values represent relative growth as judged by SYBR Green-I fluorescence intensity values normalized to controls.
(§3) Fresh uninfected RBCs (0.5% hematocrit) were added on day 7 and media was changed every other day. […] Resistant parasites were maintained under drug media at a volume of 50 mL until a high parasitemia (> 5%) was achieved. Aliquots of the bulk resistant cultures were frozen in cryovials before cloning by limiting dilution in 96-well plates (seeded at 0.25 or 0.5 parasites/well)[70]. After 3 weeks of cloning, we screened for positive wells by flow cytometry with SYBR Green-stained cells. […] Parasites were harvested by saponin lysis at the trophozoite stage and genomic DNA was extracted using the QIAamp DNA Blood Midi Kit (Qiagen, Germantown, MD)[71].

[2] = test system: P. falciparum Dd2 Cytb F123L; assay: SYBR Green ABS proliferation assay, NCGC00473217 selected clone G08; type: cell-based, Plasmodium falciparum; design: log AC50, mean: unit: log10(M); details: for AC50: Plasmodium falciparum; for log AC50, mean: cytochrome b mutant line
Experimental: as §1, §2, §3

[3] = test system: P. falciparum Dd2 Cytb A122D; assay: SYBR Green ABS proliferation assay, NCGC00473217 selected clone F12; type: cell-based, Plasmodium falciparum; details: Plasmodium falciparum
Experimental: as §1, §2, §3

[4] = test system: P. falciparum Dd2 Cytb G131S; assay: SYBR Green ABS proliferation assay, NCGC00374598 selected clone C11; type: cell-based, Plasmodium falciparum; details: Plasmodium falciparum
Experimental: as §1, §2, §3

[5] = test system: P. falciparum Dd2 (clone B2) asexual blood stage parasites; assay: P. falciparum Dd2 asexual blood stage SYBR Green-I 72 h proliferation assay (qHTS); type: cell-based, Plasmodium falciparum; details: Plasmodium falciparum, DD2, Dd2 parental; Hill fit, averaged from three independent replicates; top concentration 29 µM; read-out: Average AC50 (Log[M]), Dd2 (converted)
[6] = test system: luciferase-expressing P. berghei liver stage parasites in HepG2 cells; assay: Inhibition of liver-stage development assay (ILSDA), Method 2 (WRAIR, 96-well); type: cell-based, Plasmodium berghei; details: P. berghei liver stage, Method 2, dose response
[7] = test system: Plasmodium falciparum Dd2 asexual blood stage parasites; assay: microbe, parasite or virus in culture; design: species or system Plasmodium falciparum Dd2 in human erythrocytes; single determination (one 11-point concentration-response curve); details: Plasmodium falciparum, DD2, Erythrocyte, 72 h; read-out: AC50
[8] = test system: P. berghei-ANKA-GFP-LucCON liver stage parasites in HepG2-A16-CD81EGFP cells; assay: P. berghei liver stage Pb-Luc assay, Method 1 (UCSD, 1536-well); type: cell-based, Plasmodium berghei; details: Method 1; for AC50: Plasmodium berghei
[9] = DD2, […], averaged from three independent replicates, top concentration 29 µM, read-out: Average AC50 (Log[M]), NCGC00473217 clone G08 (Cytb F123L) (converted)
[10] = DD2, […], averaged from three independent replicates, top concentration 29 µM, read-out: Average AC50 (Log[M]), NCGC00473217 clone F12 (Cytb A122D) (converted)
[11] = DD2, […], averaged from three independent replicates, top concentration 29 µM, read-out: Average AC50 (Log[M]), NCGC00374598 clone C11 (Cytb G131S) (converted)
[12] = DD2, cytochrome b mutant line, fifth value triple, c15, […], read-out: log AC50, mean (converted)

| Structure (SMILES) | AC50 [1] [M] | AC50 [2, 9] [M] | AC50 [3, 10] [M] | AC50 [4, 11] [M] | AC50 [5] [M] | other results |
| --- | --- | --- | --- | --- | --- | --- |
| CCCN1C(CC(C)C)=N[S+](=O)([O-])c2cc(NC(=O)c3ccc(-c4ccccc4)o3)ccc21 [NCGC00521160-01] | 6.32e-06 | 5.02e-06 | 3.17e-06 | – | – | – |
| CCCN1C(CC(C)C)=N[S+](=O)([O-])c2cc([N+](=O)[O-])ccc21 [NCGC00510308-01] | 1.59e-05 | 2.52e-09 | – | – | – | – |
| CCCN1C(CC(C)C)=N[S+](=O)([O-])c2cc(NC(=O)c3cncs3)ccc21 [NCGC00521052-01] | 5.86e-06 | – | 1.72e-06 | 6.58e-07 | 4.84e-06 | – |
| CCCN1C(CC(C)C)=N[S+](=O)([O-])c2cc(N)ccc21 [NCGC00521151-01] | – | 3.99e-06 | – | 2e-06 | 2e-05 | – |
| CCCN1C(CC(C)C)=N[S+](=O)([O-])c2cc(NC(=O)c3ccc(-c4ccccc4)cc3)ccc21 [NCGC00521159-01] | 7.1e-06 | – | 8.93e-06 | 7.1e-06 | 8.93e-06 | – |
| CCCN1C(CC(C)C)=N[S+](=O)([O-])c2cc(NC(=O)c3ccsc3)ccc21 [NCGC00521157-01] | 1.34e-06 | – | 8.93e-07 | 2.08e-06 | 2e-06 | – |
| CCCN1C(C)=N[S+](=O)([O-])c2cc(NC(=O)c3ccccc3)ccc21 [NCGC00522605-01] | – | 3.56e-07 | – | 2e-06 | 1e-05 | – |
| O=c1[nH]c(N2CCOCC2)nc2c1CCN(Cc1ccc(Cl)cc1F)CC2 [NCGC00440653-01] | – | – | – | – | – | Activity direction (Decrease / Inactive) [6]: Inactive; AC50 [2, 12]: 2.16e-06 M; log AC50, mean ([2]; fifth value triple, c15, […]): -5.475; AC50 [7]: 3350 nM; Max Resp (signal direction of the dose response) ([8]; Decrease = decreasing P. berghei viability with dose, Increase = increasing signal, Inactive = no dose response): Inactive |
| O=c1[nH]c(N2CCOCC2)nc2c1CCN(Cc1cc(Cl)ccc1F)CC2 [NCGC00440651-01] | – | – | – | – | – | Activity direction (Decrease / Inactive) [6]: Inactive; AC50 [2, 12]: 2.16e-06 M; log AC50, mean ([2]; fifth value triple, c15, […]): -5.575; AC50 [7]: 2370 nM; AC50 ([8]; Hill fit, 50% of maximum activity response, read-out: AC50): 2820 nM; AC50 ([8]; log10 of molar AC50 from Hill fit, read-out: Log AC50 (converted)): 2820 nM |
| N[S+](=O)([O-])c1cc2c(cc1Cl)NC(C(Cl)Cl)N[S+]2(=O)[O-] (stereo not drawn) [NCGC00018302-09] | 1.42e-06 | 5.02e-06 | 6.32e-07 | – | – | – |
| NS(=O)(=O)c1cc2c(cc1C(F)(F)F)NC(Cc1ccccc1)NS2(=O)=O (stereo not drawn) [NCGC00018194-08] | 1.26e-06 | 8.93e-06 | – | 1e-08 | – | – |
| CCCN1C(CC(C)C)=N[S+](=O)([O-])c2cc(NC(=O)c3ccc(OC(F)(F)F)cc3)ccc21 [NCGC00531538-01] | – | 1.78e-05 | 1.59e-06 | – | 1.26e-06 | – |
| CCCN1C(CC(C)C)=N[S+](=O)([O-])c2cc(NC(=O)c3c(C)noc3C)ccc21 [NCGC00521866-01] | – | 2.52e-06 | 7.52e-06 | 1e-05 | 1.78e-05 | – |
| CN1C(CC2CCCCC2)=N[S+](=O)([O-])c2cc(NC(=O)c3ccc(F)s3)ccc21 [NCGC00651709-01] | – | – | – | – | – | AC50 ([4]; DD2, cytochrome b mutant line, second value triple, c6, […], read-out: log AC50, mean (converted)): 5.96e-06 M; AC50 [2, 12]: 1.68e-05 M; AC50 ([3]; DD2, cytochrome b mutant line, fourth value triple, c12, […], read-out: log AC50, mean (converted)): 5.31e-06 M |
| CCCN1C(CC(C)C)=N[S+](=O)([O-])c2cc(N[S+](=O)([O-])c3cccs3)ccc21 [NCGC00521163-01] | 1.59e-05 | 1.12e-05 | 8.93e-06 | – | 1.78e-05 | – |
| O=C(Nc1ccc2c(c1)[S+](=O)([O-])N=C1CCCN12)c1cccs1 [NCGC00537660-01] | – | – | – | – | – | AC50 [2, 12]: 2e-09 M |
| CCCN1C(CC(C)C)=N[S+](=O)([O-])c2cc(NC(=O)c3ccc(OC)cc3)ccc21 [NCGC00531533-02] | 1e-06 | 1e-06 | – | 1.47e-06 | 2.52e-06 | – |
| CCCN1C(CC(C)C)=N[S+](=O)([O-])c2cc(N[S+](=O)([O-])c3ccc(F)cc3)ccc21 [NCGC00521879-01] | – | 6.32e-07 | – | – | – | – |

Source: PMC7822874, “Chemoprotective antimalarials identified through quantitative high-throughput screening of Plasmodium blood and liver stage parasites” (Scientific Reports, 2021)
